A short description of data set [1]: Maximum solubility / solubilisation of organic compounds in ionic liquid/basic aqueous solution mixtures (flask method). To be noted: for solubility: thermodynamic from solid; for natural solubility in a solution of pH=14: pH=14, without ionic liquid; for concentration of solution obtained: KOH 2M.
Procedure: (§1) 100 mg of the targeted organic compound are introduced into a flask as well as the desired quantity of ionic liquid to be tested. A basic aqueous solution is added in portions of 0.1 mL until a solution is obtained. The maximum concentration is then determined in accordance with the following formula:
Cmax=[mcompound/Mcompound]/V
(§2) Cmax is the maximum concentration of given organic molecule in mol·L^−1, mcompound is the mass of the introduced organic molecule (in g), Mcompound is the molar mass of this organic molecule (in g·mol^−1) and V is the volume of added aqueous solution (in L).
(§3) The quinone is introduced into a volumetric flask (the quantity is dependent on the targeted concentration, generally between 0.1 and 0.5 M). The liquid is added (the quantity is dependent on the solubilising power of the ionic liquid, in stoichiometric quantity in relation to the quinone). An aqueous solution containing hydroxide ions at a concentration between 0.1 and 5 M is added until the flask is full.
The nature of data set [2]: Cyclic voltammetry of electrolytic solutions. Type of data set: physicochemical. The conditions noted are these: vitreous carbon electrode. As for the experimental part:
The action of the ionic liquids on the solubility of the organic molecules can be observed by a simple electrochemical analysis. The method used is voltammetry with linear variation of the potential. The result is the plotting of a curve i=f(E) of which the value of the oxidation or reduction current of the electroactive molecule is proportional to its concentration in solution. The electrochemical analyses are performed in an electrochemical cell of which the volume is 40 ml. The volume of the solutions introduced into the electrochemical cell is 10 ml.
In order to perform the analyses, three electrodes immersed in the solution are used: • Working electrode. The working electrode is the location of the studied electrochemical reaction. In this instance, an electrode which is made of vitreous carbon and has a surface of 3 mm diameter, or a nickel electrode of 5 mm diameter was used. The electrochemical reactions are often sensitive to the nature of the electrodes. For example, depending on their nature, some electrodes may passivate and others may not, compared to the same electrochemical system in solution. • Counter electrode. The counter electrode enables the passage of the current in the solution between itself and the working electrode. This electrode must be very stable (for example must not dissolve in the event of oxidation). […]

A short description of the next data set: physchem. To be noted: aqueous with cosolvent or surfactant or cyclodextrin, thermodynamic from solid, Solubility in KOH 2 mol · L^−1 and ionic liquid: Anthraquinone.
The mark [3] stands for this setting: aqueous KOH solution with ionic liquid, aqueous with cosolvent or surfactant or cyclodextrin, Solubility in KOH 2 mol · L^−1 and ionic liquid: Anthraquinone, KOH 2 mol·L^−1, ionic liquid (I-a), (I-b) or (I-c) 0.5 mol·L^−1.
[4] abbreviates: aqueous KOH solution without ionic liquid, aqueous buffer, Solubility in KOH 2 mol · L^−1, aqueous KOH 2 mol·L^−1, without ionic liquid.

Structures are written as SMILES. In brackets after ≈: the same amount, converted by molar mass. Where two headings read alike, the source gives them in different places.

Procedure for physchem: as §1
Cmax=[mcompound/Mcompound]/V
as §2, §3

For `O=C1c2cccc(O)c2C(=O)c2cccc(O)c21`, the results for the solubility in data set [1] (setting [3]) and in data set [1] (setting [4]) were 500 mM (≈ 120 mg/mL) and 100 mM (≈ 24 mg/mL), respectively.
On to `O=C1c2ccccc2C(=O)c2cc(S(=O)(=O)O)ccc21`, for which the solubility (usually the dissolved amount per volume that the medium holds) is 100 mM (≈ 28.8 mg/mL) in data set [1] (setting [3]) and under 100 mM in data set [1] (setting [4]). The “natural solubility in a solution of pH=14” value (shortened to “natural solubility”) in data set [1] is listed as “very weak”.
As to `O=C1c2ccccc2C(=O)c2c1cc(S(=O)(=O)[O-])c(O)c2O.[Na+]` [Alizarin redS, Alizarin Red S], the solubility in data set [1] (aqueous KOH solution with ionic liquid, aqueous with cosolvent or surfactant or cyclodextrin, Solubility in KOH 2 mol · L^−1 and ionic liquid: Anthraquinone, KOH 2 mol·L^−1, ionic liquid (I-a), (I-b) or (I-c) 0.6 mol·L^−1) was 600 mM; in data set [1] (aqueous KOH solution with ionic liquid, aqueous with cosolvent or surfactant or cyclodextrin, solubility in the presence of ionic liquid, KOH 2 mol·L^−1, 0.6 M ionic liquid) it was 600 mM; in data set [1] (setting [4]), 200 mM; in data set [1] (aqueous KOH solution without ionic liquid, aqueous buffer, solubility in a solution of KOH 2 mol·L^−1, KOH 2 mol·L^−1, without ionic liquid), about 200 mM. Also, in data set [2] (0.6 M ionic liquid vs none, 100 mV·s^−1 (FIG. 1)), the “increase in the intensity of the oxidation peak and the reduction peak (factor)” value came to 15. Moreover, the peak current intensity entry in data set [2] (0.6 mol·L^−1 with 0.6 mol·L^−1 ionic liquid, 100 mV·s^−1) is listed as “greater than 60 mA·cm^−2”.
Turning to `O=C1c2ccccc2C(=O)c2c1ccc(O)c2O` [alizarin, Alizarin], the “concentration of solution obtained” value in data set [1] (1,3-dimethylimidazolium methyl sulfate 1:1 with alizarin) is recorded as “greater than 0.5 M”; in data set [1] (1,3-dimethylimidazolium methyl sulfate less than 1:1 to alizarin, precipitate still visible) it was under 0.5 M; in data set [1] (N-methylisoquinolinium methyl sulfate 1:1 with alizarin, precipitate still visible) it was under 0.5 M; in data set [1] (alizarin/1,3-dimethylimidazolium methyl sulfate/N-methylisoquinolinium methyl sulfate 1:0.5:0.5), 0.8 M; in data set [1] (either isolated ionic liquid, alizarin/ionic liquid 1:0.5, no solution obtained), under 0.5 M. Moreover, the “concentration in aqueous solution of KOH 2 M with ionic liquid” value in data set [1] (KOH 2 M, addition of 10% (vol.) ionic liquid) worked out at 0.5 M. Besides, the solubility came out at 500 mM (≈ 120 mg/mL) in data set [1] (setting [3]); 250 mM (≈ 60.1 mg/mL) in data set [1] (aqueous KOH solution with ionic liquid, aqueous with cosolvent or surfactant or cyclodextrin, concentration solubilised in aqueous solution of KOH 2 M with ionic liquid, KOH 2 M, 5% (vol.) ionic liquid); 100 mM (≈ 24 mg/mL) in data set [1] (setting [4]); 100 mM (≈ 24 mg/mL) in data set [1] (aqueous KOH solution without ionic liquid, aqueous buffer, soluble concentration in aqueous solution of KOH 2 M, KOH 2 M, without ionic liquid (saturation)).
Regarding `O=C1c2ccccc2C(=O)c2ccccc21`, the “natural solubility” value is reported as “very weak”. In the data set “physchem”, this compound gave a solubility of under 100 mM.
On to `Nc1cccc2c1C(=O)c1ccccc1C2=O`, for which the solubility in data set [1] (setting [3]) is 100 mM (≈ 22.3 mg/mL); in data set [1] (setting [4]), under 100 mM. Moreover, the “natural solubility” value in data set [1] is “very weak”.

The values are drawn from patent publication US20190148754A1, “USE OF IONIC LIQUIDS AS AN ADJUVANT IN ELECTROCHEMISTRY” (UNIVERSITE DE RENNES 1, priority 2016, published 2019).
